Test results from article PMC12698594, “A natural PCID2-Targeting compound suppresses hepatocellular carcinoma progression: evidence from structure-based discovery and biological evaluation” (Frontiers in Pharmacology, 2025).

Molecular target: T1, PCID2 (PCI-domain containing protein 2) (Homo sapiens, UniProt Q5JVF3)
T1 construct: amine-type direct coupling to CM5 chip; DSS1 not mentioned in the SPR test
Assay: SPR (Biacore, CM5 chip, […] Langmuir global fit)
Assay type: binding

T1 sequence (Q5JVF3 2-399): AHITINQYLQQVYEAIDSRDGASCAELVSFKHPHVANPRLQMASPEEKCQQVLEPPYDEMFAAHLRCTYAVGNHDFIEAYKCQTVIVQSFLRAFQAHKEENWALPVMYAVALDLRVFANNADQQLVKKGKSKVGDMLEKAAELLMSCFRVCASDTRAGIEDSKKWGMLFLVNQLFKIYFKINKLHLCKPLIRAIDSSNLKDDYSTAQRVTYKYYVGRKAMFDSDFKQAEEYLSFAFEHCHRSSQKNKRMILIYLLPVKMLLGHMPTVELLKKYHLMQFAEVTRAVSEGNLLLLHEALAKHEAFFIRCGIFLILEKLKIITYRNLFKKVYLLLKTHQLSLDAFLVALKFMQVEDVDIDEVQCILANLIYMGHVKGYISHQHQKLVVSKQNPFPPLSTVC

Question: How did the Kd turn out when `O=C(OC[C@H]1O[C@@H](OC(=O)c2cc(O)c(O)c(O)c2)[C@H](OC(=O)c2cc(O)c(O)c(O)c2)[C@@H](OC(=O)c2cc(O)c(O)c(O)c2)[C@@H]1OC(=O)c1cc(O)c(O)c(O)c1)c1cc(O)c(O)c(O)c1` [#02, 1,2,3,4,6-Penta-O-galloyl-β-D-glucose] was run?
Answer: 5.27 µM
